Data reported in patent US20190135818A1 (SHANGHAI INSTITUTE OF MATERIA MEDICA, CHINESE ACADEMY OF …, priority 2016, published 2019).

Experiments:
FGFR1 = biological target: T1, FGFR1 (Homo sapiens, UniProt P11362); test: FGFR kinase inhibitory activity experiment (ELISA, Poly(Glu,Tyr)4:1 substrate); type: biochemical; conditions: kinase recombinant protein FGFR1, ATP 5 μM
T1 construct: The reaction was initiated by addition of FGFR kinase domain recombinant protein diluted with 49 μL of reaction buffer; purchased Millipore 14-482
T1 sequence (P11362 478-767 limits assumed): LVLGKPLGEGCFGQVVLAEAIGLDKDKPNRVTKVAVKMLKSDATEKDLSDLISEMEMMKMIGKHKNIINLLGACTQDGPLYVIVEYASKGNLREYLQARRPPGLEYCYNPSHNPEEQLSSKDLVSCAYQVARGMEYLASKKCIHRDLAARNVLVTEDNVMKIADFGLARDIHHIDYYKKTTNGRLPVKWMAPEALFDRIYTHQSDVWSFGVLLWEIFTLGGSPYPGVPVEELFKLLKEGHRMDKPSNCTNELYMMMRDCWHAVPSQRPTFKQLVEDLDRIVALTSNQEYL
Method: Precision electronic balance (Sartotius, Cat. No. BP210D), adjustable wavelength microplate reader (Molecular Device, Cat. No. SpectraMax 190).
After the liquid was removed from the wells, the plate was washed for three times with 200 μL/well of T-PBS (PBS containing 0.1% Tween-20) for 5 minutes each time. The enzyme plate was dried at 37° C. in a dryer for 1-2 hours.
50 μL ATP solution diluted with reaction buffer (50 mM HEPES pH 7.4, 50 mM MgCl2, 0.5 mM MnCl2, 0.2 mM Na3VO4, 1 mM DTT) was added into each well at a 5 μM final concentration. The compounds were diluted to appropriate concentration in DMSO, 1 μL/well or containing the corresponding concentrations of DMSO (negative control wells). The reaction was initiated by addition of FGFR kinase domain recombinant protein diluted with 49 μL of reaction buffer. Two control wells without enzyme were set in each experiment. The plate was placed on a shaker (100 rpm) at 37° C. for 1 hour. The plate was washed with T-PBS for three times. 100 μL/well of primary antibody PY99 dilution was added, and incubated at 37° C. for 0.5 hour on a shaker (100 rpm). The plate was washed with T-PBS for three times. 100 μL/well of horseradish peroxidase-labeled secondary anti-goat anti-mouse IgG dilution was added and incubated at 37° C. for 0.5 hour on a shaker (100 rpm). The plate was washed with T-PBS for three times. 100 μL/well of 2 mg/mL OPD coloration solution (diluted with 0.1 M citric acid-sodium citrate buffer containing 0.03% H2O2 (pH=5.4)) was added, and incubated in darkness for 1-10 minutes at 25° C. The reaction was quenched with 50 μL/well 2M H2SO4, and read at 490 nm using a tunable microplate microplate reader SPECTRA MAX 190.
The inhibition ratio of the sample was determined by the following formula: […]
(§1) The IC50 values were obtained by four-parameter regression analysis using the software supplied with the microplate reader.

[1] = system: Human acute myeloid leukemia cell line KG1; test: FGFR-dependent tumor cell proliferation inhibition activity test (CCK-8, 72 h); type: cell-based
Description: Human acute myeloid leukemia cell line KG1 (FGFR1 fusion protein expressed in the cytoplasm, FGFR1-dependent tumor cell line) (ATCC, Cat. No. CCL-246), cell culture medium RPMI-1640 (Corning Cellgro, No. 10-040-CVR), fetal bovine serum (Life
Technologies, Cat. No. 10099-141) was purchased from the company; CCK-8 cell counting kit (DOJINDO, Cat. No. FK808). Adjustable wavelength microplate reader (Molecular Device, Cat. No. SpectraMax 190).
The inhibitory effect of the compound on KG1 proliferation was detected by CCK-8 Cell Counting Kit (Dojindo): Logarithmic growth phase cells were seeded in 96-well culture plate in appropriate density, 90 ul for each well. After cultured overnight, different concentrations of drugs were added and incubated for 72 h, while solvent control well was set (negative control). After the cells were treated by the compound for 72 h, 10 μL of CCK-8 reagent was added to each well. After incubated for 2-4 hours in a 37 □ incubator, the plate was read with SpectraMax 190 microplate reader at wavelength 450 nm.
The inhibition rate of compounds against cell proliferation is calculated by the following formula:
Inhibition rate (%)=(OD negative control well-OD administration well)/OD negative control well×100%.
as §1

Question: How did the IC50 (FGFR1) turn out when `C=CC(=O)N1CC(Cn2nc3c(=O)[nH]nc(N)c3c2-c2oc3ccc(C)cc3c2C)C1` [Compound A45, 2-[(1-acryloylazetidin-3-yl)methyl]-4-amino-3-(3,5-dimethyl-1-benzofuran-2-yl)-2,6-dihydro-7H-pyrazolo[3,4-d] pyridazin-7-one] was run?
Answer: < 100 nM

Question: `Cc1ccc2oc(-c3c4c(N)n[nH]c(=O)c4nn3C3CCN(C(=O)/C=C/CN(C)C4CC4)CC3)c(C)c2c1` [Compound A34, 4-amino-2-(1-{(2E)-4-[cyclopropyl (methyl)amino]but-2-enoyl}piperidin-4-yl)-3-(3,5-dimethyl-1-benzofuran-2-yl)-2,6-dihydro-7H-pyrazolo[3,4-d] pyridazin-7-one] was tested. Which IC50 (FGFR1) did it give?
Answer: < 100 nM

Question: Which results are given for `CCN1CCC(n2nc3c(=O)[nH]nc(N)c3c2-c2oc3ccc(Cl)cc3c2C)CC1` [Compound A23, 4-amino-3-(5-chloro-3-methyl-1-benzo-furan-2-yl)-2-(1-ethylpiperidin-4-yl)-2,6-dihydro-7H-pyrazolo[3,4-d]pyridazin-7-one]?
Answer: IC50 ([1]; Homo sapiens, KG-1, KG1 cells): ≤ 100 nM; IC50 (FGFR1): < 100 nM

Question: For `Cc1ccc2oc(-c3c4c(N)n[nH]c(=O)c4nn3-c3ccc(Cl)cc3)c(C)c2c1` [Compound A13, 4-amino-2-(4-chlorophenyl)-3-(3,5-dimethyl-1-benzofuran-2-yl)-2,6-dihydro-7H-pyrazolo[3,4-d]pyridazin-7-one], which IC50 ([1]; Homo sapiens, KG-1, KG1 cells) is on record?
Answer: 100 to 1000 nM

Question: And the IC50 (FGFR1)?
Answer: < 100 nM

Question: For `Cc1c(-c2c3c(N)n[nH]c(=O)c3nn2C2CCN(C(=O)/C=C/CNC3CC3)CC2)oc2ccc(Cl)cc12` [Compound A56, 4-amino-3-(5-chloro-3-methyl-1-benzo-furan-2-yl)-2-{1-[(2E)-4-(cyclopropyl-amino)but-2-enoyl]piperidin-4-yl}-2,6-dihydro-7H-pyrazolo[3,4-d]pyridazin-7-one], which IC50 (FGFR1) is on record?
Answer: < 100 nM

Question: With `C=CC(=O)N1CCC(n2nc3c(=O)[nH]nc(N)c3c2-c2oc3ccc(C)cc3c2C)C1` (stereo not drawn) [Compound A51, 2-(1-acryloylpyrrolidin-3-yl)-4-amino-3-(3,5-dimethyl-1-benzofuran-2-yl)-2,6-dihydro-7H-pyrazolo[3,4-d]pyridazin-7-one] as the compound, how does the IC50 ([1]; Homo sapiens, KG-1, KG1 cells) read?
Answer: ≤ 100 nM

Question: What about the IC50 (FGFR1) of the same compound?
Answer: < 100 nM

Question: For `CCN1CCC(n2nc3c(=O)[nH]nc(N)c3c2-c2oc3ccc(C)cc3c2C)CC1` [Compound A24, 4-amino-3-(3,5-dimethyl-1-benzofuran-2-yl)-2-(1-ethylpiperidin-4-yl)-2,6-dihy-dro-7H-pyrazolo[3,4-d]pyridazin-7-one], which IC50 ([1]; Homo sapiens, KG-1, KG1 cells) is on record?
Answer: ≤ 100 nM

Question: And the IC50 (FGFR1)?
Answer: < 100 nM

Question: What does the source list for `Cc1c(-c2c3c(N)n[nH]c(=O)c3nn2-c2ccccc2)oc2cc(F)ccc12` [Compound A8, 4-amino-3-(6-fluoro-3-methyl-1-benzo-furan-2-yl)-2-phenyl-2,6-dihydro-7H-pyrazolo[3,4-d]pyridazin-7-one]?
Answer: IC50 ([1]; Homo sapiens, KG-1, KG1 cells): 100 to 1000 nM; IC50 (FGFR1): < 100 nM

Question: What does the source list for `C=CC(=O)NC1CCC(n2nc3c(=O)[nH]nc(N)c3c2-c2oc3ccc(C)cc3c2C)CC1` (stereo not drawn) [Compound A88, N-(4-(4-amino-3-(3,5-dimethylbenzo-furan-2-yl)-7-carbonyl-6,7-dihydro-2H-pyrazolo[3,4-d]pyridazin-2-yl)cyclohexyl)acryloylamide]?
Answer: IC50 ([1]; KG1 cells): ≤ 100 nM; IC50 (FGFR1): < 100 nM

Question: How did the IC50 ([1]; Homo sapiens, KG-1, KG1 cells) turn out when `C=CC(=O)N1CCC(n2nc3c(=O)[nH]nc(N)c3c2-c2oc3cc(C)ccc3c2C)CC1` [Compound A82, 2-(1-acryloylpiperidin-4-yl)-4-amino-3-(3,6-dimethylbenzofuran-2-yl)-2,6-dihy-dro-7H-pyrazole[3,4-d]pyridazin-7-one] was run?
Answer: ≤ 100 nM

Question: What about the IC50 (FGFR1) of the same compound?
Answer: < 100 nM

Question: How did the IC50 (FGFR1) turn out when `C=CC(=O)Nc1ccc(-n2nc3c(=O)[nH]nc(N)c3c2-c2oc3ccc(C)cc3c2C)cc1N(C)CCN(C)C` [Compound A32, N-(4-[4-amino-3-(3,5-dimethyl-1-benzo-furan-2-yl)-7-carbonyl-6,7-dihydro-2H-pyrazolo[3,4-d]pyridazin-2-yl]-2-{[(dimethylamino)ethyl](methyl)amino}phenyl)prop-2-enamide] was run?
Answer: < 100 nM

Question: How did the IC50 ([1]; Homo sapiens, KG-1, KG1 cells) turn out when `Cc1c(-c2c3c(N)n[nH]c(=O)c3nn2-c2ccccc2)oc2ccc(Cl)cc12` [Compound A7, 4-amino-3-(5-chloro-3-methyl-1-benzo-furan-2-yl)-2-phenyl-2,6-dihydro-7H-pyrazolo[3,4-d]pyridazin-7-one] was run?
Answer: 100 to 1000 nM

Question: And the IC50 (FGFR1)?
Answer: < 100 nM

Question: `C=CC(=O)NC1CCC(n2nc3c(=O)[nH]nc(N)c3c2-c2oc3ccc(C)cc3c2C)CC1` (stereo not drawn) [Compound A33, N-{4-[4-amino-3-(3,5-dimethyl-1-benzo-furan-2-yl)-7-carbonyl-6,7-dihydro-2H-pyrazolo[3,4-d]pyridazin-2-yl]cyclohexyl}prop-2-enamide] was tested. Which IC50 ([1]; Homo sapiens, KG-1, KG1 cells) did it give?
Answer: ≤ 100 nM

Question: What about the IC50 (FGFR1) of the same compound?
Answer: < 100 nM

Question: Which IC50 ([1]; Homo sapiens, KG-1, KG1 cells) does the source give for `Cc1ccc2oc(-c3c4c(N)n[nH]c(=O)c4nn3-c3ccc(NC(=O)/C=C/CN4CCC4)cc3)c(C)c2c1` [Compound A27, (2E)-N-{4-[4-amino-3-(3,5-dimethyl-1-benzofuran-2-yl)-7-carbonyl-6,7-dihydro-2H-pyrazolo[3,4-d]pyridazin-2-yl]phenyl}-4-(azetidin-1-yl)but-2-enamide] here?
Answer: ≤ 100 nM

Question: What about the IC50 (FGFR1) of the same compound?
Answer: < 100 nM

Question: With `Cc1ccc2oc(-c3c4c(N)n[nH]c(=O)c4nn3-c3ccc(NCN(C)C)cc3)c(C)c2c1` [Compound A9, 4-amino-3-(3,5-dimethyl-1-benzofuran-2-yl)-2-(4-{[(dimethylamino)methyl]amino}phenyl)-2,6-dihydro-7H-pyrazolo[3,4-d]pyridazin-7-one] as the compound, how does the IC50 ([1]; Homo sapiens, KG-1, KG1 cells) read?
Answer: 100 to 1000 nM

Question: And the IC50 (FGFR1)?
Answer: < 100 nM

Question: For `Cc1ccc2oc(-c3c4c(N)n[nH]c(=O)c4nn3-c3ccccc3)c(C)c2c1` [Compound A4, 4-amino-3-(3,5-dimethyl-1-benzofuran-2-yl)-2-phenyl-2,6-dihydro-7H-pyrazolo [3,4-d]pyridazine-7-one], which IC50 ([1]; Homo sapiens, KG-1, KG1 cells) is on record?
Answer: 100 to 1000 nM

Question: Which IC50 ([1]; Homo sapiens, KG-1, KG1 cells) does the source give for `Cc1ccc2oc(-c3c4c(N)n[nH]c(=O)c4nn3C3CCC(NC(=O)CN(C)C)CC3)c(C)c2c1` (stereo not drawn) [Compound A35, N-{4-[4-amino-3-(3,5-dimethyl-1-benzo-furan-2-yl)-7-carbonyl-6,7-dihydro-2H-pyrazolo[3,4-d]pyridazin-2-yl]cyclohexyl}-N,N-dimethylglycinamide] here?
Answer: 100 to 1000 nM

Question: What about the IC50 (FGFR1) of the same compound?
Answer: < 100 nM

Question: How did the IC50 ([1]; Homo sapiens, KG-1, KG1 cells) turn out when `C=CC(=O)N1CCC(n2nc3c(=O)[nH]nc(N)c3c2-c2oc3ccc(C)cc3c2CC)CC1` [Compound A85, 2-(1-acryloylpiperidin-4-yl)-4-amino-3-(3-ethyl-5-methylbenzofuran-2-yl)-2,6-dihydro-7H-pyrazolo[3,4-d]pyridazin-7-one] was run?
Answer: ≤ 100 nM

Question: And the IC50 (FGFR1)?
Answer: < 100 nM

Question: Which results are given for `Cc1ccc2oc(-c3c4c(N)n[nH]c(=O)c4nn3C3CCN(C(=O)/C=C/CN(C)C)CC3)c(C)c2c1` [Compound A30, 4-amino-2-{1-[(2E)-4-(dimethylamino)but-2-enoyl]piperidin-4-yl}-3-(3,5-dimethyl-1-benzofuran-2-yl)-2,6-dihydro-7H-pyrazolo[3,4-d]pyridazin-7-one]?
Answer: IC50 ([1]; Homo sapiens, KG-1, KG1 cells): ≤ 100 nM; IC50 (FGFR1): < 100 nM

Question: `C=CC(=O)N1CCC(Cn2nc3c(=O)[nH]nc(N)c3c2-c2oc3ccc(C)cc3c2C)CC1` [Compound A38, 2-[(1-acryloylpiperidin-4-yl)methyl]-4-amino-3-(3,5-dimethyl-1-benzofuran-2-yl)-2,6-dihydro-7H-pyrazolo[3,4-d]pyridazin-7-one] was tested. Which IC50 (FGFR1) did it give?
Answer: < 100 nM

Question: For `Cc1ccc2oc(-c3c4c(N)n[nH]c(=O)c4nn3C3CCN(C(=O)/C=C/CN4CCC4)CC3)c(C)c2c1` [Compound A31, 4-amino-2-{1-[(2E)-4-(azetidin-1-yl)but-2-enoyl]piperidin-4-yl}-3-(3,5-dimethyl-1-benzofuran-2-yl)-2,6-dihydro-7H-pyrazolo[3,4-d]pyridazin-7-one], which IC50 (FGFR1) is on record?
Answer: < 100 nM

Question: How did the IC50 (FGFR1) turn out when `Cc1ccc2oc(-c3c4c(N)n[nH]c(=O)c4nn3C3CCN(CCN(C)C)CC3)c(C)c2c1` [Compound A36, 4-amino-2-{1-[2-(dimethylamino)ethyl]piperidin-4-yl}-3-(3,5-dimethylbenzofuran-2-yl)-2H-pyrazolo[3,4-d]pyridazin-7(6H)-one] was run?
Answer: < 100 nM
